# Reference: patent US8309557B2, “Pyrimidin-4-ylpropanedinitrile derivatives, processes for their preparation and their use as herbicides and plant growth regulators” (Bayer Intellectual Property GmbH, priority 2009, dated 2012)
# Columns and labels:
# Format in all cases: in vivo
# [1] = system: Veronica persica; assay: Herbicidal effect post-emergence, VERPE
# Description: (§1) Seeds of mono- and dicotyledonous weed plants and crop plants are planted in wood-fiber pots in sandy loam, covered with earth and grown in a greenhouse under good growth conditions. 2 to 3 weeks after sowing, the test plants are treated in the single-leaf stage. The compounds according to the invention, formulated in the form of wettable powders (WP) or as emulsion concentrates (EC), are then sprayed onto the green plant parts as aqueous suspension or emulsion using an application rate of 600 to 800 l of water/ha (converted) with the addition of 0.2% by weight of wetting agent. After the test plants had been in the greenhouse for ca. 3 weeks under optimum growth conditions, the effect of the preparations is scored visually in comparison with untreated controls (herbicidal effect in percent (%): 100% effect=plants have died off, 0% effect=as control plants).
# [2] = system: Stellaria media; assay: Herbicidal effect post-emergence, STEME
# Description: as §1
# [3] = system: Viola tricolor; assay: Herbicidal effect post-emergence, VIOTR
# Description: as §1
# [4] = system: Matricaria inodora; assay: Herbicidal effect post-emergence, MATIN
# Description: as §1
# [5] = system: Abutilon theophrasti; assay: Herbicidal effect post-emergence, ABUTH
# Description: as §1
# [6] = system: Amaranthus retroflexus; assay: Herbicidal effect post-emergence, AMARE
# Description: as §1
# [7] = system: Viola tricolor; assay: Herbicidal effect pre-emergence, VIOTR; conditions: 320 g/hectare, visual grading after 3 weeks vs untreated controls
# Text: (§2) Seeds of mono- and dicotyledonous weed plants and crop plants are planted in wood-fiber pots in sandy loam and covered with earth. The compounds according to the invention, formulated in the form of wettable powders (WP) or as emulsion concentrates (EC), are then applied to the surface of the covering earth as aqueous suspension or emulsion at an application rate corresponding to 320 g/hectare at an application rate of 600 to 800 l of water/ha (converted) with the addition of 0.2% wetting agent.
# (§3) Following treatment, the pots are placed in a greenhouse and kept under good growth conditions for the test plants. The visual grading of the damage to the test plants is carried out after a test time of 3 weeks in comparison to untreated controls (herbicidal effect in percent (%): 100% effect=plants have died off, 0% effect=as control plants).
# [8] = system: Polygonum (Fallopia) convolvulus; assay: Herbicidal effect post-emergence, POLCO
# Description: as §1
# [9] = system: Amaranthus retroflexus; assay: Herbicidal effect pre-emergence, AMARE; conditions: 320 g/hectare, visual grading after 3 weeks vs untreated controls
# Text: as §2, §3
# [10] = system: Veronica persica; assay: Herbicidal effect pre-emergence, VERPE; conditions: 320 g/hectare, visual grading after 3 weeks vs untreated controls
# Text: as §2, §3
# [11] = system: Setaria viridis; assay: Herbicidal effect post-emergence, SETVI
# Description: as §1
# [12] = system: Echinochloa crus-galli; assay: Herbicidal effect post-emergence, ECHCG
# Description: as §1
# [13] = 0.32 kg and less of active substance per hectare, visual score after ca. 3 weeks vs untreated controls
SMILES,"Effect in % in respect of stated plant, VERPE [1] [%]","Effect in % in respect of stated plant, MATIN [4] [%]","Effect in % in respect of stated plant, ABUTH [5] [%]","Effect in % in respect of stated plant, AMARE [6] [%]","Effect in % in respect of stated plant, POLCO [8] [%]","Effect in % in respect of stated plant, VERPE [10] [%]",other results
N.N#CC(C#N)c1nc(-c2ccc(Cl)cc2)nc(N)c1Br [Compound 313],100,90,80,100,,,"Effect in % in respect of stated plant, STEME [2]: 90%; Effect in % in respect of stated plant, VIOTR [3]: 80%"
CN.N#CC(C#N)c1nc(-c2ccc(Cl)cc2)nc(N)c1Cl [Compound 309],90,85,90,95,90,100,"Effect in % in respect of stated plant, STEME [2]: 80%; Effect in % in respect of stated plant, VIOTR [7]: 100%; Effect in % in respect of stated plant, VIOTR [3]: 85%; Effect in % in respect of stated plant, AMARE [9]: 85%; Effect in % in respect of stated plant, SETVI [11]: 80%; Effect in % in respect of stated plant, ECHCG [12]: 90%"
N#CC(C#N)c1nc(-c2cc(F)c(Cl)c(F)c2)nc(N)c1Cl [compound 210],80,,,90,,80,"Effect in % in respect of stated plant, VIOTR [7]: 100%"
N#CC(C#N)c1nc(-c2ccc(Cl)c(Cl)c2)nc(N)c1Cl [compound 104],90,90,80,90,80,,"Effect in % in respect of stated plant, VIOTR [3]: 80%; Effect in % in respect of stated plant, SETVI [11]: 80%; Effect in % in respect of stated plant, ECHCG [12]: 80%"
N.N#CC(C#N)c1nc(-c2ccc(Cl)cc2Cl)nc(N)c1Cl [Compound 375],90,90,90,100,100,100,"Effect in % in respect of stated plant, VIOTR [7]: 80%; Effect in % in respect of stated plant, AMARE [9]: 100%"
N#CC(C#N)c1nc(-c2ccc(Cl)c(C(F)(F)F)c2)nc(N)c1Cl [compound 87],90,90,,,,,
N#CC(C#N)c1nc(-c2ccc(C(F)(F)F)cc2)nc(N)c1Cl [compound 45],90,80,,,80,,"Effect in % in respect of stated plant, VIOTR [3]: 80%; Effect in % in respect of stated plant, SETVI [11]: 80%"
Cc1ccc(-c2nc(N)c(Cl)c(C(C#N)C#N)n2)cc1F.N [Compound 385],,80,80,100,80,,
N.N#CC(C#N)c1nc(-c2cccc(Cl)c2Cl)nc(N)c1Cl [Compound 390],80,,,90,80,,
Cc1cc(-c2nc(N)c(Cl)c(C(C#N)C#N)n2)ccc1F [compound 205],,,,,,100,"Effect in % in respect of stated plant, VIOTR [7]: 100%"
N.N#CC(C#N)c1nc(-c2ccc(F)cc2)nc(N)c1Cl [Compound 300],80,80,,80,,,
N#CC(C#N)c1nc(-c2ccc(F)cc2F)nc(N)c1Cl [compound 201],90,80,,90,90,,
Cc1ccc(-c2nc(N)c(Cl)c(C(C#N)C#N)n2)cc1F [compound 204],80,80,90,90,80,,"Effect in % in respect of stated plant, ECHCG [12]: 80%"
N#CC(C#N)c1nc(-c2cccc(Cl)c2Cl)nc(N)c1Cl [compound 207],90,80,80,100,100,,"Effect in % in respect of stated plant, STEME [2]: 80%"
"N#CC(C#N)c1nc(-c2ccc(Cl)cc2)nc(N)c1Cl [Ex. No. 29, [6-Amino-5-chloro-2-(4-chlorophenyl)pyrimidin-4-yl]propanedinitrile]",90,,80,,,100,"Effect in % in respect of stated plant, VIOTR [7]: 80%; Effect in % in respect of stated plant, VIOTR [3]: 80%"
N#C[C-](C#N)c1nc(-c2ccc(Cl)c(Cl)c2)nc(N)c1Cl.[Na+] [Compound 340],90,90,80,90,90,,
N#CC(C#N)c1nc(-c2cc(F)ccc2N)nc(N)c1Cl [compound 203],,,,,,90,"Effect in % in respect of stated plant, AMARE [9]: 100%"
Cc1ccc(-c2nc(N)c(Cl)c(C(C#N)C#N)n2)c(F)c1.N [Compound 391],,,,,80,,
N.N#CC(C#N)c1nc(-c2ccc(F)cc2F)nc(N)c1Cl [Compound 383],90,90,80,90,100,,
"N#CC(C#N)c1nc(-c2ccccc2)nc(N)c1Cl [Ex. No. 1, [6-Amino-5-chloro-2-phenylpyrimidin-4-yl]propanedinitrile]",,,,,,,"herbicidal effect [1, 13]: at least 80%; herbicidal effect [8, 13]: at least 80%; herbicidal effect [4, 13]: at least 80%"
Cc1cc(-c2nc(N)c(Cl)c(C(C#N)C#N)n2)ccc1F.N [Compound 389],80,,80,80,80,,
N#CC(C#N)c1nc(-c2ccc(Cl)cc2Cl)nc(N)c1Cl [compound 186],90,90,100,100,100,100,"Effect in % in respect of stated plant, STEME [2]: 90%; Effect in % in respect of stated plant, VIOTR [3]: 80%; Effect in % in respect of stated plant, AMARE [9]: 90%"
N#CC(C#N)c1nc(C2CCCCC2)nc(N)c1Cl [compound 240],90,80,80,,,,
